This note sets out measurements from publication PMC4559766 (Scientific Reports, 2015).

Read-outs that look alike come from different tables or passages of the source. Peptide text beside a SMILES is read from it.

The test system of data set [1] is Du145 transplanted tumor. Kind of data set: Subcutaneous Du145 transplanted tumor in nude mice. It is filed as in vivo, BALB/c-nu/nu nude mice. The following applies: tail vein once a day for 4 weeks. The method, then: Thirty male 4-week-old BALB/c-nu/nu nude mice (17–19 g), were divided into five groups. CK group (blank control) was the mice which were not inoculated Du145 cells, and the remaining four groups received inoculation of Du145 cells. 0.2 ml of Du145 cells suspension with the concentration of 1.5 × 10^7 cells/ml was injected subcutaneously into the right side of back of nude mice. […] The weights and volumes of tumors in different groups were measured once every four days, and tumor growth curves for each group were plotted.

A short description of data set [2]: Blood biochemical indexes of liver and kidney function in tumor-bearing nude mice. The following applies: serum at end of 4 weeks of administration, n = 6.
Procedure: (§1) The blood was collected and centrifuged at the end of administration for 4 weeks. The serum was placed into eppendorf (EP) tube and immediately sent to the First Affiliated Hospital of Jinan University where several tests closely related to liver/kidney function were performed, and the blood biochemical indexes AST, ALT, AST/ALT, ALB, GLB, ALB/GLB, DBILI, IBILI, TBILI, BUN and CREA were obtained.
In data set [3] the test system is Du145 transplanted tumor. Kind of data set: Microvessel density of removed tumors (anti-CD31 immunohistochemistry, Weidner method). It is filed as in vivo, BALB/c-nu/nu nude mice. The following applies: tumors removed after 4 weeks of administration, anti-CD31, n = 6. As to the method:
Four weeks after administration, the mice were executed, and the tumors of different groups were removed and fixed with 10% neutral formalin or 2.5% glutaraldehyde. The fixed tumor tissue slides were subjected to Hematoxylin-eosin (HE) staining, immunohistochemistry in which anti-CD31 antibody and biotin-labeled IgG were respectively used as the first and second antibody, and TEM analysis. The microvessel densitied (MVD) in different tumor tissues was calculated using the Weidner method.

For data set [4] the following is noted: mouse, in vivo.
Procedure: (§2) Blood samples were collected by eye bleed from three mice at per time point prior to dosing and from 0.5 to 24 hours postdosing, and the plasma portion was analyzed by using an electrospray ionization, LC/MS/MS method described previously[48]. […] Tri (2-carboxyethyl) phosphine hydrochloride (TCEP) was used as a reducing agent to enhance peptide recovery and was added to all samples at a final concentration of 2 mM. After removing the plasma proteins through adding acetonitrile and centrifugation, the supernatant was transferred to another 96-well plate. Samples were analyzed by LC/MS/MS. Pharmacokinetic parameters were fitted to a two-compartment elimination model, and drug exposure (AUC), elimination half-life (t1⁄2), volume of distribution (Vd) and the clearance (CL) were calculated using WinNonlin Ver.
Data set [5] in a line: in vivo. Conditions: BALB/c, mouse, iv, 5 mg/kg.
Procedure: as §2
For data set [6] the following is noted: mouse, in vivo. The source holds these as a separate data set.
Procedure: as §1
Data set [7] addresses T1, HSA (Homo sapiens, UniProt P02768).
T1 construct: purchased Sigma
The experiment in a line: Phage ELISA of 7-mer peptides for serum albumin binding. The method, then:
HSA or MSA were dissolved with 0.1 M NaHCO3 to obtain a solution at 100 μg/ml. The obtained solutions were loaded to each row of wells of enzyme-linked immunosorbent assay (ELISA) multiple-well plate, and the plates were blocked with 1% casein in NaHCO3. Each selected phage clone to be identified was subject to 4-fold serial dilution to allow 10^12 phage particles in the first well and 2.4 × 10^5 phage particles in the twelfth well. Each row of the diluted phages was transferred into the plate coated with HSA or MSA by using a mutichannel pipettor, and the plate was incubated at 25 °C for 1.5 hours. After the microtiter plate was repeatedly washed with TBST, bound phages were detected by incubation with Rabbit anti-M13 phage antibody and HRP-conjugated goat anti-rabbit IgG. ABTS/H2O2 substrate was used to measure the amount of HRP bound and monitor the absorbance at 405 nm.

T1 sequence (P02768 25-609): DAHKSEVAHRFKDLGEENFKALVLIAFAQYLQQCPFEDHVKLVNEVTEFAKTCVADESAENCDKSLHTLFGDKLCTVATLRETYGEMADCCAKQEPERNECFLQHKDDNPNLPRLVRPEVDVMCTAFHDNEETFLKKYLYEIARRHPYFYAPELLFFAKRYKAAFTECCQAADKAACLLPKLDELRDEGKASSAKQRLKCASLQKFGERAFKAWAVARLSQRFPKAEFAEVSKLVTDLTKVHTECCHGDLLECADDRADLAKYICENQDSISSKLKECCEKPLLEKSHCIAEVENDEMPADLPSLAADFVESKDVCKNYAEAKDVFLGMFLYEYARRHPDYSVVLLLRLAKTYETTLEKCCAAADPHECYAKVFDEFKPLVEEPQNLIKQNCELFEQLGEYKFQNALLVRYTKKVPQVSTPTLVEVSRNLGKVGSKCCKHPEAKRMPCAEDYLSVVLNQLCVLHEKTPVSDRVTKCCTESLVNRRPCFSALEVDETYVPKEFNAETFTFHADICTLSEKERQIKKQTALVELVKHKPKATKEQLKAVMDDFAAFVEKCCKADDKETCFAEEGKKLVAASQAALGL

Consider `C[C@]12CC[C@@H]3c4ccc(OC(=O)N(CCCl)CCCl)cc4CC[C@H]3[C@@H]1CC[C@@H]2O` [Estramustine], for which the “body weight change of treated mice” value in data set [1] (40 nM RMP16, estramustine 60 mg/kg) is given as “reduced obviously”. Also, the tumor inhibition rate in data set [1] (0.1 ml of 40 nM RMP16 or P16, estramustine 60 mg/kg, by average tumor weight versus NaCl group, n = 6) was 83.03%. In data set [2], the ALB was 15.2 ± 0.6 g/L, the ALB/GLB was determined as 0.36 ± 0.02, the ALT was 81.5 ± 12.5 U/L and the AST was determined as 161 ± 18 U/L. In data set [2], the AST/ALT amounted to 1.99 ± 0.09, the CREA was 4 ± 0.3 µM, the DBILI was 3.7 ± 0.4 µM and the GLB is 42.1 ± 3.7 g/L. Besides, in data set [2], the IBILI came out at 7.7 ± 0.2 µM and the TBILI is 11.4 ± 0.2 µM. Moreover, the “microvessel density (MVD)” value in data set [3] was found to be 8.6 ± 0.83.

The compound `CC[C@H](C)[C@H](NC(=O)[C@H](CCCNC(=N)N)NC(=O)[C@H](CO)NC(=O)[C@@H](NC(=O)[C@@H](NC(=O)[C@H](Cc1c[nH]cn1)NC(=O)[C@@H](NC(=O)[C@H](CC(C)C)NC(=O)[C@@H](N)CC(C)C)[C@@H](C)O)[C@@H](C)O)[C@@H](C)CC)C(=O)N[C@@H](C)C(=O)N[C@H](C(=O)N[C@@H](CO)C(=O)N[C@@H](Cc1ccc(O)cc1)C(=O)N[C@@H](CCC(N)=O)C(=O)N[C@H](C(=O)N[C@@H](CCCCN)C(=O)N[C@H](C(=O)N[C@@H](CC(N)=O)C(=O)N[C@@H](CC(C)C)C(=O)N[C@@H](CC(C)C)C(=O)O)C(C)C)[C@@H](C)O)C(C)C` [P16] (H-LLTHTISRIAVSYQTKVNLL-OH) yielded a half-life in data set [4] of 5.77 min. In data set [5], this compound had an AUC of 12300 ng·h/mL, a Vd of 0.0561 L/kg, a clearance of 6.75 mL/min/kg and a half-life of 5.76 min. For the same compound, in data set [6], the ALB was found to be 17.25 ± 1.35 g/L, the ALB/GLB came out at 0.45 ± 0.02, the ALT stood at 131.5 ± 24.5 U/L and the AST is listed as 188.5 ± 29.5 U/L. Moreover, in data set [6], the AST/ALT is 1.45 ± 0.05, the BUN was found to be 10.63 ± 0.35, the CREA turned out to be 9.5 ± 0.5 µM and the DBILI was found to be 3.85 ± 0.25 µM. In data set [6], this compound returned a GLB of 41.75 ± 1.45 g/L, an IBILI of 9.75 ± 0.45 µM and a TBILI of 13.6 ± 0.2 µM.

Take WQRPSSW: in data set [7] (phage ELISA, plates coated with HSA or MSA), the “binding affinity to HSA compared with MSA” value is given as “slightly higher than that of mouse serum albumin”. Further, the “HSA-binding affinity of phage-encoded 7-mer peptide” value in data set [7] (sandwich immunoassay (ELISA), 4-fold serial dilution from 10^12 phage particles, absorbance at 405 nm) is “much higher HSA-binding affinity than HLYWQRP”.

The term half-life denotes the time in which the quantity being followed falls by half. Higher therefore signals slow decline. What is called AUC is the area under the concentration-time curve, a measure of exposure. A lower AUC goes with low exposure. Usually Vd stands for a proportionality between amount in the body and measured concentration, not a real space. Read a low Vd as little distribution into tissue. Broadly, the clearance is the rate of elimination divided by the concentration.
